Measured values taken from article PMC4503722, “Novel Phenotypic Outcomes Identified for a Public Collection of Approved Drugs from a Publicly Accessible Panel of Assays” (PLoS ONE, 2015).
pEC50, pIC50: −log10 of the molar value. Like-named read-outs stand apart in the source and are kept apart here.

What was measured:
[1] = system: endothelial tube formation in co-cultures of ECFCs and ADSCs treated with VEGF; experiment: cells; format: cell-based, human
[2] = system: nuclear β-catenin in C2C12 cells; experiment: cells; format: cell-based
INS-1E cells [3] = experiment: cells; format: cell-based, rat; settings: for pEC50: Rattus norvegicus, INS-1E
INS-1E cells [4] = format: cell-based, rat
NCI-H716 cells = experiment: cells; format: cell-based, Human; settings: Homo sapiens, NCI-H716; read-out: GLP1 sec. EC50
DLD-1 = experiment: cells; format: cell-based
SW480 = experiment: cells; format: cell-based; settings: for pIC50: Homo sapiens
HCT116 = experiment: cells; format: cell-based
[5] = system: HCT116 cells treated with a GSK3β inhibitor; experiment: cells; format: cell-based
[6] = system: tonic K+ channel activity in INS-1E cells; experiment: cells; format: cell-based, rat; settings: 0.1 mM glucose; for 0.1mMGluc_INS1E FluxOR IC50/EC50: assay number 10
HT-29 = experiment: cells; format: cell-based
RKO = experiment: cells; format: cell-based
SNU-C1 = experiment: cells; format: cell-based
[7] = system: alkaline phosphatase (ALP) activity in C2C12 cells; format: cell-based; settings: assay number 6; concentration response
HeLa cells = experiment: cells; format: cell-based
hp70S6K1 (RPS6KB1) = target: T1, hp70S6K1 (RPS6KB1) (Homo sapiens, UniProt P23443); experiment: Cerep LANCE kinase assay hp70S6K1 (S1 assay 31); format: biochemical; settings: assay number 31
T1 construct: purchased Cerep (LANCE kinase assay platform, contract assay)

hKDR = target: T2, hKDR (Homo sapiens, UniProt P35968); experiment: Cerep LANCE kinase assay hKDR (S1 assay 32); format: biochemical; settings: assay number 32
T2 construct: purchased Cerep (LANCE kinase assay platform, contract assay)

hJAK2 = target: T3, hJAK2 (Homo sapiens, UniProt O60674); experiment: Cerep LANCE kinase assay hJAK2 (S1 assay 33); format: biochemical; settings: assay number 33
T3 construct: purchased Cerep (LANCE kinase assay platform, contract assay)

hGSK3b = target: T4, hGSK3b (Homo sapiens, UniProt P49841); experiment: Cerep LANCE kinase assay hGSK3b (S1 assay 34); format: biochemical; settings: assay number 34
T4 construct: purchased Cerep (LANCE kinase assay platform, contract assay)

hFLT3 = target: T5, hFLT3 (Homo sapiens, UniProt P36888); experiment: Cerep LANCE kinase assay hFLT3 (S1 assay 35); format: biochemical; settings: assay number 35
T5 construct: purchased Cerep (LANCE kinase assay platform, contract assay)

[8] = system: ECFC/ADSC co-culture cell nuclei number
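For 5mMGluc INS1E SecretionMod IC50/EC50 in this document: secreted insulin quantified by homogeneous immunoassay.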
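For IC50/EC50, 5mMGluc INS1E SecretionMod (assay number 8) in this document: secreted insulin quantified by homogeneous immunoassay.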

T1 sequence (P23443 whole entry): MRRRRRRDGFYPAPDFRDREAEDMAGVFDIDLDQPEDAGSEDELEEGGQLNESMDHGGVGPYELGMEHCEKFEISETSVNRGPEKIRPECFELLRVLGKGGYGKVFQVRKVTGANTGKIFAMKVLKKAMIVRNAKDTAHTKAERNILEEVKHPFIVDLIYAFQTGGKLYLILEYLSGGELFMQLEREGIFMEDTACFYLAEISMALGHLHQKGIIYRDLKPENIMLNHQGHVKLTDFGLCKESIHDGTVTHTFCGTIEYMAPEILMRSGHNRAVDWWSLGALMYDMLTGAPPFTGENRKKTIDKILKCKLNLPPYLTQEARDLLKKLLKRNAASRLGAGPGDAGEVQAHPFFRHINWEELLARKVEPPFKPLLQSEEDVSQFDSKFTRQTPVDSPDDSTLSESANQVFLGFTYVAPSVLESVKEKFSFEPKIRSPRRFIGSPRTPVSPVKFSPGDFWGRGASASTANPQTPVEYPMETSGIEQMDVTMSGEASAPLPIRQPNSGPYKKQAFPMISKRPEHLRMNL
T5 sequence (P36888 27-993): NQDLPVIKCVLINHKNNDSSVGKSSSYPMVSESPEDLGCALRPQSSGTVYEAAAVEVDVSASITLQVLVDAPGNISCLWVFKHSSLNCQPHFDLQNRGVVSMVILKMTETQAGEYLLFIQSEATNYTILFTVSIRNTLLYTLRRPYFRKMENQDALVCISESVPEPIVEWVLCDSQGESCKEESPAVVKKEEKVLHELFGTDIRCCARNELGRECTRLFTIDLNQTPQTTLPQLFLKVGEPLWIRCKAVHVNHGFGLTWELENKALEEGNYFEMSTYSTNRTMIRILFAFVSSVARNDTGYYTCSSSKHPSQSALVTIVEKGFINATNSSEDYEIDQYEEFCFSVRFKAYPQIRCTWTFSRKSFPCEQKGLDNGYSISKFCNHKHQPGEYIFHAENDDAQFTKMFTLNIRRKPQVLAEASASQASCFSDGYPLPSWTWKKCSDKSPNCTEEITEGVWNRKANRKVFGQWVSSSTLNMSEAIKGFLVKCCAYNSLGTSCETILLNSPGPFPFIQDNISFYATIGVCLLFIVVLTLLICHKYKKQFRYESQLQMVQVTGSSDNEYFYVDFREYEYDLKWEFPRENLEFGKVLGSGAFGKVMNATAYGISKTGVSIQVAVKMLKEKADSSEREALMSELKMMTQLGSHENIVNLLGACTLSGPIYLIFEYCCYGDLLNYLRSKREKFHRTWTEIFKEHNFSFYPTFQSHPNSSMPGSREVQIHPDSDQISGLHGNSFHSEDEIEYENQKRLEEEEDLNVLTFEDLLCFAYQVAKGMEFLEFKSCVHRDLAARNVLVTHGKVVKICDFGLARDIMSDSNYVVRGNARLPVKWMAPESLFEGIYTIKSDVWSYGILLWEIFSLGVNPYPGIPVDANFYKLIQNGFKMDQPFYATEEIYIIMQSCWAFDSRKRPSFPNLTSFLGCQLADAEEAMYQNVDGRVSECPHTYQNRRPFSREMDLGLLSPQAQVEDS
T4 sequence (P49841 whole entry): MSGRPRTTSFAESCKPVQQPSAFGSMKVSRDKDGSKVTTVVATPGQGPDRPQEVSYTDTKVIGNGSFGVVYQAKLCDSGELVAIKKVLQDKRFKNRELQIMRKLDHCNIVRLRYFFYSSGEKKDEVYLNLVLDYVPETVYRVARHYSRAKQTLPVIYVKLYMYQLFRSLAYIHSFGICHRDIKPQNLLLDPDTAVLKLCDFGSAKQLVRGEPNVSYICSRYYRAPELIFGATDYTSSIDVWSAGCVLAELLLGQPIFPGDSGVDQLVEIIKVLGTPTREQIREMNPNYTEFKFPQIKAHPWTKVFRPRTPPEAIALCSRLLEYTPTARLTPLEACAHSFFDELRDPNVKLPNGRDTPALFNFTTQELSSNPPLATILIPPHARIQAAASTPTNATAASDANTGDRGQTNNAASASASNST
T2 sequence (P35968 20-1356): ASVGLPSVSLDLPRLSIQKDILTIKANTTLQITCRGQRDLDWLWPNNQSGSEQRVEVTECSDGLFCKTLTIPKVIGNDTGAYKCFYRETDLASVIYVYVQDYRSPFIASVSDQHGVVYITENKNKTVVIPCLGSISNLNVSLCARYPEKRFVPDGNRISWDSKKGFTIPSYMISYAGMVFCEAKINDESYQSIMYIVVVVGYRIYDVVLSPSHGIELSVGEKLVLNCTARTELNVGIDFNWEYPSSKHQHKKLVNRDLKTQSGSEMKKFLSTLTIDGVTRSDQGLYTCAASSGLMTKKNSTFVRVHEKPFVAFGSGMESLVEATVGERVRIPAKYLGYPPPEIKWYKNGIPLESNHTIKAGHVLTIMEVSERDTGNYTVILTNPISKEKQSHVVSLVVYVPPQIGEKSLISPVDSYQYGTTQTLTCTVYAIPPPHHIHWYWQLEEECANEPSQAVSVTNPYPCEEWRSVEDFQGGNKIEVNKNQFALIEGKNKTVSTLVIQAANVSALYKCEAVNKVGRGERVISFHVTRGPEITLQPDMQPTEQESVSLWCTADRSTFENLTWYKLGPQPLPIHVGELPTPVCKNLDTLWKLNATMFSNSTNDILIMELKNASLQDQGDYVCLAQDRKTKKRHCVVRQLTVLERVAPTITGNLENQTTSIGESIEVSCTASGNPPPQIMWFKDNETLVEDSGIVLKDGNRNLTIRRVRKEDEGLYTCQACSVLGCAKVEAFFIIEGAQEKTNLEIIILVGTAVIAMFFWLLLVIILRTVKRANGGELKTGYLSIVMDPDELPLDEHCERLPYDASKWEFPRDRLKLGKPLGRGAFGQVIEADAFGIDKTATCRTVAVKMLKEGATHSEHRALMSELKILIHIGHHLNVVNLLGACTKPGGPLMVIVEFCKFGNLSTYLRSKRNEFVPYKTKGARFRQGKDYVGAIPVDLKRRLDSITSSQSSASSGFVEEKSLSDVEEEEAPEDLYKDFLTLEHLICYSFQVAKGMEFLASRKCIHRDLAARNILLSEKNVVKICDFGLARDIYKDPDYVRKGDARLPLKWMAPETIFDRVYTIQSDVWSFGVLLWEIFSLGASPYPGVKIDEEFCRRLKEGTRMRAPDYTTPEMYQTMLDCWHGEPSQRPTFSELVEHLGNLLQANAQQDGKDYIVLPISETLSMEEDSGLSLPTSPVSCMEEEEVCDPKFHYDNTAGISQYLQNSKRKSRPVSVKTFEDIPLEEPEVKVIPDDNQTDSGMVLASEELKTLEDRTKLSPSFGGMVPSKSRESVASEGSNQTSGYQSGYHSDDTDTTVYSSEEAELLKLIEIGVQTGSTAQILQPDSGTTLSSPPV
T3 sequence (O60674 whole entry): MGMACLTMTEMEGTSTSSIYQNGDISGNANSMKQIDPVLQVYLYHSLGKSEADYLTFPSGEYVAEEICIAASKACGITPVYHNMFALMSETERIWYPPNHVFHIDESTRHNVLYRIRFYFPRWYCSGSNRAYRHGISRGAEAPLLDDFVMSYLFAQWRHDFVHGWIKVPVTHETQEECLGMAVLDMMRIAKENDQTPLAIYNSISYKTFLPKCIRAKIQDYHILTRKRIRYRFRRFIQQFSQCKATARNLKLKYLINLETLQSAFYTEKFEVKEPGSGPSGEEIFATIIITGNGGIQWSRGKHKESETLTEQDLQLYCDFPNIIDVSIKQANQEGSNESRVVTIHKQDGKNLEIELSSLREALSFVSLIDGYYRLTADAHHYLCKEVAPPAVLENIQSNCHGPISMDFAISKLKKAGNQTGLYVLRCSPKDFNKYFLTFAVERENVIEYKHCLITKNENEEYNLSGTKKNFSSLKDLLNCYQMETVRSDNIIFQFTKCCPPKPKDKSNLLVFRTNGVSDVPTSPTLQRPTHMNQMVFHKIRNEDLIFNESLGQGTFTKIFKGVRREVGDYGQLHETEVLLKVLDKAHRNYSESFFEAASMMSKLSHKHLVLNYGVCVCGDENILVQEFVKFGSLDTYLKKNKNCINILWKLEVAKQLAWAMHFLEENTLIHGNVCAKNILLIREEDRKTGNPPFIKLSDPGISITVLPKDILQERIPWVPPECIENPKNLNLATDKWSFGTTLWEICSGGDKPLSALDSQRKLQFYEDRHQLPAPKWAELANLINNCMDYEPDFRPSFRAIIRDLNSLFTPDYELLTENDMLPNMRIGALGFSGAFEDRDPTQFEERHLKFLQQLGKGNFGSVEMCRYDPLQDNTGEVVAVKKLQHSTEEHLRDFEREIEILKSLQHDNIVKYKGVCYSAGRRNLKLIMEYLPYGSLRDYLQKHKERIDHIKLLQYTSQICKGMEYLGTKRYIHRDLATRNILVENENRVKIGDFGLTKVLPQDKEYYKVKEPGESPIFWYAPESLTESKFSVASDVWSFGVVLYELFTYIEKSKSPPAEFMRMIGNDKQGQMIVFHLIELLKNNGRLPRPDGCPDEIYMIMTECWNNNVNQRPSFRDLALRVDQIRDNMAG

## COc1ccc(Cl)cc1C(=O)NCCc1ccc(S(=O)(=O)NC(=O)NC2CCCCC2)cc1 [glibenclamide, reference compound]
[1]; Homo sapiens, Table 2, primary assay tube area, 20 = no response in concentration-response, 20.1 = inactive in single concentration testing, read-out: Anti-Angio IC50
  pIC50: < 5.00
[2]; Mus musculus, C2C12, Table 2, C2C12, […], 20 / 20.1 coded, read-out: Wnt pot. EC50
  pEC50: < 5.00
INS-1E cells [3]; read-out: Ins. sec. EC50
  pEC50: 8.70
INS-1E cells [3]; read-out: Insulin Secretion
  pEC50: 8.61
INS-1E cells [3]; 5 mM glucose, read-out: insulin secretion EC50
  pEC50: 8.60
INS-1E cells [4]; INS-1E, 0.1 mM glucose
  insulin secretion at low glucose (in words): stimulated insulin secretion at low glucose concentrations
NCI-H716 cells
  pEC50: < 5.00
DLD-1; Homo sapiens, DLD-1, 72 h, Table 2, 72 h, Cell TiterGlo, non-adherent, 20 coded, read-out: DLD-1 viab. IC50
  pIC50: < 4.70
SW480; SW480, 72 h, Table 2, 72 h, Cell TiterGlo, non-adherent, 20 coded, read-out: SW480 viab. IC50
  pIC50: 5.54
SW480; SW480, basal, SW480, read-out: Basal_Viability ATP SW480
  pIC50: 5.54
HCT116; Homo sapiens, HCT-116, 72 h, read-out: HCT-116 viab. IC50, Table 2, basal, 72 h, Cell TiterGlo, non-adherent, 20 coded
  pIC50: < 4.70
[5]; Homo sapiens, HCT-116, read-out: HCT-116 (GSK3β) viab. IC50, Table 2, GSK3β inhibitor LY2090314 20 nM, 72 h, Cell TiterGlo, 20 coded
  pIC50: < 4.70

## CN(C)C/C=C(/c1ccc(Br)cc1)c1cccnc1.Cl.Cl.O [NCGC00025286-04]
INS-1E cells [3]; assay number 8, 5 mM glucose
  5mMGluc_INS1E SecretionMod IC50/EC50: 8.361 µM
INS-1E cells [4]; assay number 9, 0.1 mM glucose
  0.1mMGluc_INS1E SecretionMod Act IC50/EC50: > 33.33 µM
[6]
  0.1mMGluc_INS1E FluxOR IC50/EC50: 27.874 µM

## CCN(CC)CCOCCOC(=O)C1(c2ccccc2)CCCC1 [NCGC00024595-08]
INS-1E cells [3]; assay number 8, 5 mM glucose
  5mMGluc_INS1E SecretionMod IC50/EC50: 7.687 µM
INS-1E cells [4]; assay number 9, 0.1 mM glucose
  0.1mMGluc_INS1E SecretionMod Act IC50/EC50: > 33.33 µM
[6]
  0.1mMGluc_INS1E FluxOR IC50/EC50: 4.656 µM

## Cc1c(C)n(Cc2ccccc2)c2ccc(C(=O)OCCN(C)C)cc12 [NCGC00160412-04]
INS-1E cells [3]
  5mMGluc_INS1E SecretionMod IC50/EC50: 3.845 µM
INS-1E cells [4]
  0.1mMGluc_INS1E SecretionMod Act IC50/EC50: 14.9139 µM
DLD-1
  Basal_Viability ATP DLD-1 IC50/EC50: 11.2721 µM
SW480
  Basal_Viability ATP SW480 IC50/EC50: 8.7786 µM
HCT116
  Basal_Viability ATP HCT116 IC50/EC50: 11.7611 µM
[5]
  GSK3b inh pretreated_Viability ATP HCT116 IC50/EC50: 5.474 µM
HT-29
  Basal_Viability ATP HT-29 IC50/EC50: > 6.6667 µM
RKO
  Basal_Viability ATP RKO IC50/EC50: 12.7694 µM
SNU-C1
  Basal_Viability ATP SNU-C1 IC50/EC50: 11.9645 µM

## O=c1[nH]c2ccccc2n1CCCN1CCC(n2c(=O)[nH]c3cc(Cl)ccc32)CC1 [NCGC00014670-17]
INS-1E cells [3]; 5 mM glucose
  IC50/EC50, 5mMGluc_INS1E SecretionMod (assay number 8): 12.4283 µM
INS-1E cells [4]; 0.1 mM glucose
  IC50/EC50, 0.1mMGluc_INS1E SecretionMod Act (assay number 9): > 33.33 µM
[6]
  IC50/EC50, 0.1mMGluc_INS1E FluxOR (assay number 10): 36.5303 µM

## CC(C)C1CCC(C(=O)N[C@H](Cc2ccccc2)C(=O)O)CC1 (stereo partly drawn) [NCGC00178741-03]
INS-1E cells [3]; assay number 8, 5 mM glucose
  5mMGluc_INS1E SecretionMod IC50/EC50: 7.074 µM
INS-1E cells [4]; assay number 9, 0.1 mM glucose
  0.1mMGluc_INS1E SecretionMod Act IC50/EC50: > 33.33 µM
[6]
  0.1mMGluc_INS1E FluxOR IC50/EC50: 0.2515 µM

## CC1CC(=O)NN=C1c1ccc(NCC(C)(C)NCC(O)COc2cc(Cl)ccc2C#N)cc1 (stereo not drawn) [NCGC00249416-01]
INS-1E cells [3]; assay number 8, 5 mM glucose
  5mMGluc_INS1E SecretionMod IC50/EC50: 15.1547 µM
INS-1E cells [4]; assay number 9, 0.1 mM glucose
  0.1mMGluc_INS1E SecretionMod Act IC50/EC50: > 33.33 µM
[6]
  0.1mMGluc_INS1E FluxOR IC50/EC50: 84.8421 µM

## CSc1ccc2c(c1)C(N1CCN(C)CC1)Cc1ccccc1S2 (stereo not drawn) [NCGC00024665-10]
[1]
  VEGF_ADSC\ECFC Angio CD31 TubeArea IC50/EC50: > 10 µM
[2]; assay number 5, concentration response
  WntCondMedia_bCatenin C2C12 IC50/EC50: > 20 µM
[7]
  WntCondMedia_Alk Phos C2C12 IC50/EC50: > 20 µM
INS-1E cells [3]; assay number 8, 5 mM glucose
  5mMGluc_INS1E SecretionMod IC50/EC50: 2.944 µM
INS-1E cells [4]; assay number 9, 0.1 mM glucose
  0.1mMGluc_INS1E SecretionMod Act IC50/EC50: > 33.33 µM
HeLa cells; assay number 14, 2N
  Hela CellCycMod PI 2N IC50/EC50: > 10 µM
HeLa cells; assay number 16, 4N
  Hela CellCycMod PI 4N IC50/EC50: > 10 µM
HeLa cells; assay number 17, MI
  Hela CellCycMod PI MI IC50/EC50: > 10 µM
HeLa cells; assay number 18, cell number
  Hela CellCycMod PI Cell Number IC50/EC50: > 10 µM
hp70S6K1 (RPS6KB1)
  hp70S6K1 LANCE IC50/EC50: > 20 µM
hKDR
  hKDR LANCE IC50/EC50: > 20 µM
hJAK2
  hJAK2 LANCE IC50/EC50: > 20 µM
hGSK3b
  hGSK3b LANCE IC50/EC50: > 20 µM
hFLT3
  hFLT3 LANCE IC50/EC50: > 20 µM
[8]
  VEGF_ADSC\ECFC Angio Hoechst NucArea IC50/EC50: > 10 µM
